Results taken from patent publication US8895474B2, “Herbicidally active cyclopentanediones and derivatives thereof, and their use in controlling weeds” (Syngenta Limited, priority 2009, dated 2014).

Legend:
Format in all cases: in vivo
Settings in all cases: 312 h, rate 250 g/ha, evaluated after 13 days, 100=total damage to plant, 0=no damage to plant
[1] = system: Alopecurus myosuroides (ALOMY); experiment: Pre-emergence herbicidal activity, glasshouse pot test
Procedure: (§1) Seeds of a variety of test species were sown in standard soil in pots. After cultivation for one day (pre-emergence) or after 8 days cultivation (post-emergence) under controlled conditions in a glasshouse (at 24/16° C., day/night; 14 hours light; 65% humidity), the plants were sprayed with an aqueous spray solution derived from the formulation of the technical active ingredient in acetone/water (50:50) solution containing 0.5% Tween 20 (polyoxyethelyene sorbitan monolaurate, CAS RN 9005-64-5). The test plants were then grown in a glasshouse under controlled conditions in a glasshouse (at 24/16° C., day/night; 14 hours light; 65% humidity) and watered twice daily. After 13 days for pre and post-emergence, the test was evaluated (100=total damage to plant; 0=no damage to plant). Test Plants: Lolium perenne (LOLPE), Alopecurus myosuroides (ALOMY), Echinochloa crus-galli (ECHCG), and Avena fatua (AVEFA). Pre-Emergence Activity

Avena fatua (AVEFA) [2] = experiment: as above
Procedure: as §1

[3] = system: Echinochloa crus-galli (ECHCG); experiment: as above
Procedure: as §1

Lolium perenne (LOLPE) [4] = experiment: as above
Procedure: as §1

[5] = system: Alopecurus myosuroides (ALOMY); experiment: Post-emergence herbicidal activity, glasshouse pot test
Procedure: as §1, with “Post-Emergence” for “Pre-Emergence”

Avena fatua (AVEFA) [6] = experiment: as above
Procedure: as §1, with “Post-Emergence” for “Pre-Emergence”

[7] = system: Echinochloa crus-galli (ECHCG); experiment: as above
Procedure: as §1, with “Post-Emergence” for “Pre-Emergence”

Lolium perenne (LOLPE) [8] = experiment: as above
Procedure: as §1, with “Post-Emergence” for “Pre-Emergence”

Structure (SMILES)	pest or weed control at 250 g/ha [1] [%]	pest or weed control at 250 g/ha (Avena fatua (AVEFA) [2]) [%]	pest or weed control at 250 g/ha [3] [%]	pest or weed control at 250 g/ha (Lolium perenne (LOLPE) [4]) [%]	pest or weed control at 250 g/ha [5] [%]	pest or weed control at 250 g/ha (Avena fatua (AVEFA) [6]) [%]	pest or weed control at 250 g/ha [7] [%]	pest or weed control at 250 g/ha (Lolium perenne (LOLPE) [8]) [%]
CCc1ccc(Oc2ccc(Cl)cc2)cc1C1=C(O)[C@H]2[C@@H](C1=O)[C@@H]1CC[C@H]2O1 [Compound A-1, meso-(1R,2S,6R,7S)-4-[5-(4-chlorophenoxy)-2-ethylphenyl]-10-oxatricyclo[5.2.1.0^2,6]decane-3,5-dione]	70	70	70	70	100	80	100	80
CCc1ccc(Oc2ccc(Br)cc2F)cc1C1=C(O)[C@H]2[C@@H](C1=O)[C@@H]1CC[C@H]2O1 [Compound A-2]	60	30	60	60	100	100	100	100
CCc1ccc(Oc2ccc(Br)cc2C)cc1C1=C(O)[C@H]2[C@@H](C1=O)[C@@H]1CC[C@H]2O1 [Compound A-3]	60	30	90	70	90	90	100	70
CCc1ccc(Oc2ccc(Br)cc2)cc1C1=C(O)[C@H]2[C@@H](C1=O)[C@@H]1CC[C@H]2O1 [Compound A-4]	80	90	100	90	100	100	100	90
CCc1ccc(Oc2ccccc2F)cc1C1=C(O)[C@H]2[C@@H](C1=O)[C@@H]1CC[C@H]2O1 [Compound A-5]	30	0	80	40	30	10	80	30
CCc1ccc(Oc2ccc(Cl)cc2F)cc1C1=C(O)[C@H]2[C@@H](C1=O)[C@@H]1CC[C@H]2O1 [Compound A-6]	100	90	100	100	80	90	100	90
CCc1ccc(Oc2cccc(Cl)c2)cc1C1=C(O)[C@H]2[C@@H](C1=O)[C@@H]1CC[C@H]2O1 [Compound A-7]	60	50	70	60	60	80	100	60
CCc1ccc(Oc2ccccc2Cl)cc1C1=C(O)[C@H]2[C@@H](C1=O)[C@@H]1CC[C@H]2O1 [Compound A-8]	0	0	40	40	20	20	70	20
CCc1ccc(Oc2ccc(Br)cc2Cl)cc1C1=C(O)[C@H]2[C@@H](C1=O)[C@@H]1CC[C@H]2O1 [Compound A-9]	80	90	70	100	90	100	90	70
CCc1ccc(Oc2cnc3cc(Cl)ccc3n2)cc1C1=C(O)[C@H]2[C@H]3CC[C@H](C3)[C@H]2C1=O [Compound A-10, meso-(3aS,4S,7R,7aR)-2-[5-(6-chloroquinoxalin-2-yloxy)-2-ethylphenyl]hexahydro-4,7-methanoindene-1,3-dione]	40	20	60	30	90	100	90	90
CCc1ccc(Oc2ncc(Cl)cc2F)cc1C1=C(O)[C@H]2[C@H]3CC[C@H](C3)[C@H]2C1=O [Compound A-11]	30	50	100	80	80	90	100	70
CCc1ccc(Oc2nc3ccccc3s2)cc1C1=C(O)[C@H]2[C@H]3CC[C@H](C3)[C@H]2C1=O [Compound A-12]	60	30	70	70	100	50	100	70
CCc1ccc(Oc2cnc3cc(Cl)ccc3n2)cc1C1=C(O)C2C(C1=O)[C@H]1CC[C@@H]2CC1 (some centres unmarked) [Compound A-13, 2-[5-(6-chloroquinoxalin-2-yloxy)-2-ethylphenyl]hexahydro-4,7-ethanoindene-1,3-dione]	50	20	80	60	90	100	100	90
CCc1ccc(Oc2ncc(Cl)cc2F)cc1C1=C(O)C2C(C1=O)[C@H]1CC[C@@H]2CC1 (some centres unmarked) [Compound A-14]	60	60	100	90	100	100	100	90
CCc1ccc(Oc2ccc(C#N)cc2)cc1C1=C(O)C2C(C1=O)[C@H]1CC[C@@H]2CC1 (some centres unmarked) [Compound A-15]	30	0	100	10	30	30	80	30
CCc1ccc(Oc2nc3ccccc3s2)cc1C1=C(O)C2C(C1=O)[C@H]1CC[C@@H]2CC1 (some centres unmarked) [Compound A-16]	40	30	90	70	70	90	100	70
CCc1ccc(Oc2ccc(Cl)c(Cl)c2)cc1C1=C(O)CCC1=O [Compound A-17, 2-[5-(3,4-dichlorophenoxy)-2-ethylphenyl]cyclopentane-1,3-dione]	10	20	30	10	10	10	70	30
CCc1ccc(Oc2cnc3cc(Cl)ccc3n2)cc1C1=C(O)CCC1=O [Compound A-18]	50	50	80	70	90	90	100	70
CCc1ccc(Oc2ncc(Cl)cc2F)cc1C1=C(O)CCC1=O [Compound A-19]	90	80	90	90	80	60	100	50
